Assay results: ChEMBL document CHEMBL1147101, “Development and persistence of antimicrobial resistance in Pseudomonas aeruginosa: a longitudinal observation in mechanically ventilated patients” (Antimicrob Agents Chemother, 2007)
Active and inactive are the calls of the source. The calls are words filed in the database; no cut-off is given here.

Legend:
Type in all cases: functional, organism-based
Settings in all cases: Trachea
[1] = tested on: Pseudomonas aeruginosa; assay: Antimicrobial activity against Pseudomonas aeruginosa 65.38-3 tracheal isolates from mechanically ventilated tuberculosis patient
[2] = tested on: Pseudomonas aeruginosa; assay: Antimicrobial activity against Pseudomonas aeruginosa 65.38-4 tracheal isolates from mechanically ventilated tuberculosis patient
[3] = tested on: Pseudomonas aeruginosa; assay: Antimicrobial activity against Pseudomonas aeruginosa 1A9 tracheal isolates from mechanically ventilated tuberculosis patient
[4] = tested on: Pseudomonas aeruginosa; assay: Antimicrobial activity against Pseudomonas aeruginosa 1B9 tracheal isolates from mechanically ventilated tuberculosis patient
[5] = tested on: Pseudomonas aeruginosa; assay: Antimicrobial activity against Pseudomonas aeruginosa 2A1 tracheal isolates from mechanically ventilated tuberculosis patient
[6] = tested on: Pseudomonas aeruginosa; assay: Antimicrobial activity against Pseudomonas aeruginosa 2C1 tracheal isolates from mechanically ventilated tuberculosis patient
[7] = tested on: Pseudomonas aeruginosa; assay: Antimicrobial activity against Pseudomonas aeruginosa 2A2 tracheal isolates from mechanically ventilated tuberculosis patient
[8] = tested on: Pseudomonas aeruginosa; assay: Antimicrobial activity against Pseudomonas aeruginosa 2A3 tracheal isolates from mechanically ventilated tuberculosis patient
[9] = tested on: Pseudomonas aeruginosa; assay: Antimicrobial activity against Pseudomonas aeruginosa 2A5 tracheal isolates from mechanically ventilated tuberculosis patient
[10] = tested on: Pseudomonas aeruginosa; assay: Antimicrobial activity against Pseudomonas aeruginosa 2A6 tracheal isolates from mechanically ventilated tuberculosis patient
[11] = tested on: Pseudomonas aeruginosa; assay: Antimicrobial activity against Pseudomonas aeruginosa 2F6 tracheal isolates from mechanically ventilated tuberculosis patient
[12] = tested on: Pseudomonas aeruginosa; assay: Antimicrobial activity against Pseudomonas aeruginosa 2A7 tracheal isolates from mechanically ventilated tuberculosis patient
[13] = tested on: Pseudomonas aeruginosa; assay: Antimicrobial activity against Pseudomonas aeruginosa 2A9 tracheal isolates from mechanically ventilated tuberculosis patient
[14] = tested on: Pseudomonas aeruginosa; assay: Antimicrobial activity against Pseudomonas aeruginosa 3B1 tracheal isolates from mechanically ventilated tuberculosis patient
[15] = tested on: Pseudomonas aeruginosa; assay: Antimicrobial activity against Pseudomonas aeruginosa 65.68-1 tracheal isolates from mechanically ventilated tuberculosis patient
[16] = tested on: Pseudomonas aeruginosa; assay: Antimicrobial activity against Pseudomonas aeruginosa 65.68-2 tracheal isolates from mechanically ventilated tuberculosis patient
[17] = tested on: Pseudomonas aeruginosa; assay: Antimicrobial activity against Pseudomonas aeruginosa 65.68-3 tracheal isolates from mechanically ventilated tuberculosis patient
[18] = tested on: Pseudomonas aeruginosa; assay: Antimicrobial activity against Pseudomonas aeruginosa 65.68-4 tracheal isolates from mechanically ventilated tuberculosis patient
[19] = tested on: Pseudomonas aeruginosa; assay: Antimicrobial activity against Pseudomonas aeruginosa P21.21 tracheal isolates from mechanically ventilated tuberculosis patient
[20] = tested on: Pseudomonas aeruginosa; assay: Antimicrobial activity against Pseudomonas aeruginosa 65.18-1 tracheal isolates from mechanically ventilated tuberculosis patient
[21] = tested on: Pseudomonas aeruginosa; assay: Antimicrobial activity against Pseudomonas aeruginosa 65.18-3 tracheal isolates from mechanically ventilated tuberculosis patient
[22] = tested on: Pseudomonas aeruginosa; assay: Antimicrobial activity against Pseudomonas aeruginosa P21.23 tracheal isolates from mechanically ventilated tuberculosis patient
[23] = tested on: Pseudomonas aeruginosa; assay: Antimicrobial activity against Pseudomonas aeruginosa IA5 tracheal isolates from mechanically ventilated tuberculosis patient
[24] = tested on: Pseudomonas aeruginosa; assay: Antimicrobial activity against Pseudomonas aeruginosa IC7 tracheal isolates from mechanically ventilated tuberculosis patient
[25] = tested on: Pseudomonas aeruginosa; assay: Antimicrobial activity against Pseudomonas aeruginosa 65.33-2 tracheal isolates from mechanically ventilated tuberculosis patient
[26] = tested on: Pseudomonas aeruginosa; assay: Antimicrobial activity against Pseudomonas aeruginosa 65.33-3 tracheal isolates from mechanically ventilated tuberculosis patient
[27] = tested on: Pseudomonas aeruginosa; assay: Antimicrobial activity against Pseudomonas aeruginosa 65.36-3 tracheal isolates from mechanically ventilated tuberculosis patient
[28] = tested on: Pseudomonas aeruginosa; assay: Antimicrobial activity against Pseudomonas aeruginosa 65.36-4 tracheal isolates from mechanically ventilated tuberculosis patient
[29] = tested on: Pseudomonas aeruginosa; assay: Antimicrobial activity against Pseudomonas aeruginosa 65.38-1 tracheal isolates from mechanically ventilated tuberculosis patient
[30] = tested on: Pseudomonas aeruginosa; assay: Antimicrobial activity against Pseudomonas aeruginosa 65.38-2 tracheal isolates from mechanically ventilated tuberculosis patient
[31] = tested on: Pseudomonas aeruginosa; assay: Antimicrobial activity against Pseudomonas aeruginosa 2C2 tracheal isolates from mechanically ventilated tuberculosis patient
[32] = tested on: Pseudomonas aeruginosa; assay: Antimicrobial activity against Pseudomonas aeruginosa 2B5 tracheal isolates from mechanically ventilated tuberculosis patient
[33] = tested on: Pseudomonas aeruginosa; assay: Antimicrobial activity against Pseudomonas aeruginosa 65.18-2 tracheal isolates from mechanically ventilated tuberculosis patient
[34] = tested on: Pseudomonas aeruginosa; assay: Antimicrobial activity against Pseudomonas aeruginosa 65.18-4 tracheal isolates from mechanically ventilated tuberculosis patient
[35] = tested on: Pseudomonas aeruginosa; assay: Antimicrobial activity against Pseudomonas aeruginosa 65.33-1 tracheal isolates from mechanically ventilated tuberculosis patient
[36] = tested on: Pseudomonas aeruginosa; assay: Antimicrobial activity against Pseudomonas aeruginosa 65.33-4 tracheal isolates from mechanically ventilated tuberculosis patient
[37] = tested on: Pseudomonas aeruginosa; assay: Antimicrobial activity against Pseudomonas aeruginosa 1C9 tracheal isolates from mechanically ventilated tuberculosis patient
[38] = tested on: Pseudomonas aeruginosa; assay: Antimicrobial activity against Pseudomonas aeruginosa 15H5 tracheal isolates from mechanically ventilated chronic respiratory insufficiency patient
[39] = tested on: Pseudomonas aeruginosa; assay: Antimicrobial activity against Pseudomonas aeruginosa 65.36-1 tracheal isolates from mechanically ventilated tuberculosis patient
[40] = tested on: Pseudomonas aeruginosa; assay: Antimicrobial activity against Pseudomonas aeruginosa 65.36-2 tracheal isolates from mechanically ventilated tuberculosis patient
[41] = tested on: Pseudomonas aeruginosa; assay: Antimicrobial activity against Pseudomonas aeruginosa ID7 tracheal isolates from mechanically ventilated tuberculosis patient

Compound | Activity [1] | Activity [2] | Activity [3] | Activity [4] | Activity [5] | Activity [6] | Activity [7] | Activity [8] | Activity [9] | Activity [11] | Activity [12] | Activity [13] | Activity [14] | Activity [15] | Activity [16] | Activity [19] | Activity [21] | Activity [22] | Activity [23] | Activity [24] | other results
C[C@@H](O)[C@H]1C(=O)N2C(C(=O)O)=C(S[C@@H]3CN[C@H](C(=O)N(C)C)C3)[C@H](C)[C@H]12 | inactive | inactive | inactive | inactive | inactive | inactive | inactive | Active | Active | inactive | inactive | inactive | Active | inactive | inactive | Active | Active | Active | Active | Active | Activity [10]: inactive; Activity [17]: inactive; Activity [18]: inactive; Activity [20]: Active; Activity [25]: inactive; Activity [26]: inactive; Activity [27]: inactive; Activity [28]: inactive; Activity [29]: inactive; Activity [30]: inactive
C[C@H]1[C@H](NC(=O)/C(=N\OC(C)(C)C(=O)O)c2csc(N)n2)C(=O)N1S(=O)(=O)O | inactive |  | inactive | inactive |  | inactive | Active | Active | Active | inactive | inactive | inactive | Active | Active | Active | Active | Active | Active | Active | Active | Activity [31]: Active; Activity [32]: Active; Activity [10]: inactive; Activity [17]: Active; Activity [18]: Active; Activity [20]: Active; Activity [33]: Active; Activity [34]: Active; Activity [35]: Active; Activity [36]: Active; Activity [29]: inactive
CCN[C@@H]1C[C@H](N)[C@@H](O[C@H]2OC(CN)=CC[C@H]2N)[C@H](O)[C@H]1O[C@H]1OC[C@](C)(O)[C@H](NC)[C@H]1O | inactive | inactive | Active | inactive | Active | inactive | Active | Active | Active | inactive | inactive | inactive | Active | Active | inactive | Active | Active | Active | Active | Active | Activity [31]: Active; Activity [33]: Active; Activity [34]: Active; Activity [35]: Active; Activity [28]: inactive; Activity [29]: inactive; Activity [30]: inactive
NC[C@H]1O[C@H](O[C@H]2[C@H](O)[C@@H](O[C@H]3O[C@H](CO)[C@@H](O)[C@H](N)[C@H]3O)[C@H](N)C[C@@H]2N)[C@H](N)C[C@@H]1O | Active | Active | Active |  | Active | Active | Active | Active | Active | Active | Active | Active | Active | Active | Active | Active | Active | Active | Active | Active | Activity [37]: Active; Activity [31]: Active; Activity [32]: Active; Activity [10]: Active; Activity [17]: Active; Activity [18]: Active; Activity [38]: Active; Activity [20]: Active; Activity [33]: Active; Activity [34]: Active; Activity [35]: Active; Activity [25]: Active; Activity [26]: Active; Activity [36]: Active; Activity [39]: Active; Activity [40]: Active; Activity [27]: Active; Activity [28]: Active; Activity [30]: Active
CCN1CCN(C(=O)N[C@@H](C(=O)N[C@@H]2C(=O)N3[C@@H]2SC(C)(C)[C@@H]3C(=O)O)c2ccccc2)C(=O)C1=O | inactive | Active | inactive | inactive | inactive | inactive | Active | Active | Active | inactive | inactive | inactive | Active | Active | Active | Active | Active | Active | Active | Active | Activity [31]: Active; Activity [32]: Active; Activity [10]: inactive; Activity [17]: Active; Activity [18]: Active; Activity [20]: Active; Activity [33]: Active; Activity [34]: Active; Activity [41]: Active; Activity [35]: Active; Activity [25]: Active; Activity [26]: inactive; Activity [36]: Active; Activity [39]: Active; Activity [40]: Active; Activity [27]: Active; Activity [28]: inactive; Activity [29]: inactive; Activity [30]: inactive
